Measurements as given in patent US20180216124A1, “METHOD OF PRODUCING PLASTID TRANSFORMANTS” (HONDA MOTOR CO., LTD., priority 2015, published 2018).

Key:
switchgrass calluses [1] = assay: Sensitivity of switchgrass calluses to drugs: callus growth on PVC medium; type: cell-based
Protocol: (§1) Skins of mature seeds of switchgrass variety “Alamo” were removed by 60% (v/v) sulfate treatment, and a fungicide for seeds was used for sterilization. […] The seeds were cultured for a few months in the dark at 28° C. Then, grown calluses were classified as independent strains for each derived seed. Strains in which a compact callus expected to have a regeneration ability was grown were selected and cultured.
(§2) In order to develop a new screening method that is appropriate for plastid transformation, the calluses of the regeneration strains prepared in the above <1> were used to examine sensitivity of wild type plant cells to various drugs.

switchgrass calluses [2] = assay: Sensitivity of switchgrass calluses to drugs: plant (shoot) regeneration on PVS medium; type: cell-based; conditions: switchgrass callus on PVS medium
Protocol: as §1, §2

[3] = system: wild type of rice variety Nipponbare; conditions: MS-NK medium containing sodium nitrite 400 mg/L
Protocol: PSR1 genes were introduced into plastids of rice variety Nipponbare and rice variety Koshihikari and transformants were screened using sodium nitrite. Specifically, it was performed as follows. An MS-NK medium (Nishimura et al., Nature Protocols, 2006, Vol. 1, p. 2796-2802) used as a regeneration medium contained nitrate nitrogen, originally.

[4] = system: wild type switchgrass calluses; conditions: 28° C.
Protocol: In the sodium nitrite screening, in order to determine a screening concentration more effectively, wild type switchgrasses were cultured under sodium nitrite conditions of different concentrations, and the sensitivity of wild type cells to sodium nitrite was examined.
Specifically, a mass of 14 switchgrass calluses remained for each plate on PVC media and PVS media containing sodium nitrite having a concentration of 0, 0.25, 0.5, 0.6, 0.7, 0.8, 0.9, or 1.0 g/L, and three plates of each of which were prepared for each concentration condition. The PVC media were cultured in the dark at 28° C. and the PVS media were cultured under light at 28° C. for 4 weeks. After culture, the number of grown calluses was measured in the PVC media, and the number of calluses from which plants were regenerated was measured in the PVS media. The growth rate and the regeneration rate were calculated.

[5] = PVC media, dark, 4 weeks (FIG. 2A)
[6] = PVS media, light, 4 weeks (FIG. 2B)

| Compound | Callus growth: supression concentration (switchgrass calluses [1]) | Shoot regeneration: supression concentration (switchgrass calluses [2]) | other results |
| --- | --- | --- | --- |
| C[C@@H](Oc1ccc(Oc2ncc(Cl)cc2F)cc1)C(=O)O [Clodinafop] | (>1.0 μM) |  |  |
| O=C(N[C@H](CO)[C@H](O)c1ccc([N+](=O)[O-])cc1)C(Cl)Cl [Cloramphenicol] | (>30 mg/L) | (>15 mg/L) |  |
| CCCC(=NOCC)C1=C(O)CC(C2CCCSC2)CC1=O (centres unmarked) [Cycloxydim] | (>1.5 μM) | (>0.1 μM) |  |
| CCCCOC(=O)C(C)Oc1ccc(Oc2ccc(C(F)(F)F)cn2)cc1 (centres unmarked) [Fluazifop-butyl] | (>1.0 μM) | (>0.1 μM) |  |
| CN[C@@H]1[C@@H](O)[C@@H](O[C@@H]2[C@@H](O)[C@H](O[C@H]3O[C@H]([C@@H](C)O)[C@@H](O)[C@H](O)[C@H]3N)[C@@H](N)C[C@H]2N)OC[C@]1(C)O [G418] | (>25 mg/L) | (>25 mg/L) |  |
| O=C(O)CNCP(=O)(O)O [Glyphosate] | (>0.1 mM) | (>0.1 mM) |  |
| CC(Oc1ccc(Oc2ncc(C(F)(F)F)cc2Cl)cc1)C(=O)O (centres unmarked) [Haloxyfop] | (>1.0 μM) |  |  |
| NC[C@H]1O[C@H](O[C@H]2[C@H](O)[C@@H](O[C@H]3O[C@H](CO)[C@@H](O)[C@H](N)[C@H]3O)[C@H](N)C[C@@H]2N)[C@H](O)[C@@H](O)[C@@H]1O [Kanamycin] | (>200 mg/L) | (>100 mg/L) |  |
| C[n+]1ccc(-c2cc[n+](C)cc2)cc1 [Methylviologen] | (>1.0 μM) | (>1.0 μM) |  |
| CCc1cc(C)cc(CC)c1-c1c(OC(=O)C(C)(C)C)n2n(c1=O)CCOCC2 [Pinoxaden] | (>1.0 μM) |  |  |
| O=NO [Sodium nitrite] | (>800 mg/L) | (>800 mg/L) | Regeneration ability of wild type rice [3]: had a regeneration ability; Concentration at which callus growth was completely suppressed [4, 5]: ≥ 0.9 g/L; Concentration at which callus growth was sharply reduced [4, 5]: 0.7 g/L; Concentration at which plant regeneration was completely suppressed [4, 6]: 1.0 g/L; Concentration at which plant regeneration was sharply reduced [4, 6]: 0.8 g/L |
| [H]/N=C(/N)N[C@H]1[C@H](O)[C@@H](O)[C@H](O[C@@H]2O[C@@H](C)[C@](O)(C=O)[C@H]2O[C@@H]2O[C@@H](CO)[C@H](O)[C@@H](O)[C@@H]2NC)[C@@H](N/C(N)=N\[H])[C@@H]1O [Streptomycin] |  | (>400 mg/L) |  |
| CN(C)[C@@H]1C(O)=C(C(N)=O)C(=O)[C@@]2(O)C(O)=C3C(=O)c4c(O)cccc4[C@@](C)(O)[C@H]3C[C@@H]12 [Tetracycline] | (>40 mg/L) | (>60 mg/L) |  |
| Bleocin | (>25 mg/L) | (>10 mg/L) |  |
